Experiments:
[1] = biological target: T1, Aurora kinase C (Homo sapiens) (UniProt Q9UQB9); assay: Inhibition of human full length AurC expressed in baculovirus assessed as substrate phosphorylation using fluorescence-labelled peptides as substrate at 8 uM after 90 mins by microfluidic peptide phosphorylation assay
T1 sequence (whole entry): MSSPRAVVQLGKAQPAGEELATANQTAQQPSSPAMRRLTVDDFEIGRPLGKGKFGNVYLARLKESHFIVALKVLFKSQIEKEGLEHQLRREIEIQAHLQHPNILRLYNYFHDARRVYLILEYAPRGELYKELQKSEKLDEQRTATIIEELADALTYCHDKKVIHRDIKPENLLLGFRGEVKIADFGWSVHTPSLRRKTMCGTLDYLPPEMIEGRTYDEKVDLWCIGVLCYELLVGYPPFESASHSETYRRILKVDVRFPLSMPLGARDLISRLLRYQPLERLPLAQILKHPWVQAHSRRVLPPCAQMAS

[2] = biological target: Tyrosine-protein kinase Fyn (Homo sapiens) (UniProt P06241); assay: Inhibition of human full length FYN expressed in baculovirus assessed as substrate phosphorylation using fluorescence-labelled peptides as substrate at 0.2 uM after 90 mins by microfluidic peptide phosphorylation assay
Sequence of Tyrosine-protein kinase Fyn (Homo sapiens) (P06241 2-537 limits assumed): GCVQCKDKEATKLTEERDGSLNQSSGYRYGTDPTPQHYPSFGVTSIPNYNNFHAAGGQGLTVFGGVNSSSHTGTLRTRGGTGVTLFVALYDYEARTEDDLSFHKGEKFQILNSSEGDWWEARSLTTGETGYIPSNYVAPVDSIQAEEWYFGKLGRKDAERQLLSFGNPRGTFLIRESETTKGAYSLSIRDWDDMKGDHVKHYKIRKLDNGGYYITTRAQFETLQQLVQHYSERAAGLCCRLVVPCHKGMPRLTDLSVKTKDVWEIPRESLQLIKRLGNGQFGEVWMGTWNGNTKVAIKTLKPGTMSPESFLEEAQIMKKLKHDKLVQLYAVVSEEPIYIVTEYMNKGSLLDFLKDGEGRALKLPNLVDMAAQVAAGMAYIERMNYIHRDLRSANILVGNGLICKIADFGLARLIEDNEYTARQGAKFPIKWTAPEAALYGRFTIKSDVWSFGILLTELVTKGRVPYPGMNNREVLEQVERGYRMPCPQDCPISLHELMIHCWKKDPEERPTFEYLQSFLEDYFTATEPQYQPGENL

[3] = biological target: T2, MAP kinase-activated protein kinase 5 (Homo sapiens) (UniProt Q8IW41); assay: Inhibition of human full length PRAK expressed in baculovirus assessed as substrate phosphorylation using fluorescence-labelled peptides as substrate at 0.1 uM after 90 mins by microfluidic peptide phosphorylation assay
T2 sequence (whole entry): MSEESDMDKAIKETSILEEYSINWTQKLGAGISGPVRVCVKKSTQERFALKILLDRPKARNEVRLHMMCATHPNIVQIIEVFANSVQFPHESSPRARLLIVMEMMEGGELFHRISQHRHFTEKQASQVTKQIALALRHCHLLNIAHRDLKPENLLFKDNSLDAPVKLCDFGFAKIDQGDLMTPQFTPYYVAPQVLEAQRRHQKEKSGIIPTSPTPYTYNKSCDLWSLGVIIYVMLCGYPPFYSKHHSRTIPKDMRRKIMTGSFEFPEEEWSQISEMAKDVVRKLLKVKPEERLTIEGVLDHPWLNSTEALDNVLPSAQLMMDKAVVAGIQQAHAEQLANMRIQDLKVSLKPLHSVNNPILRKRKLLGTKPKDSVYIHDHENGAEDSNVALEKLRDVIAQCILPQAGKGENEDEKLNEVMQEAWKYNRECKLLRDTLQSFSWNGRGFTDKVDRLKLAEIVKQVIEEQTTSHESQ

[4] = biological target: T3, Serine/threonine-protein kinase D3 (Homo sapiens) (UniProt O94806); assay: Inhibition of human full length PKD3 expressed in baculovirus assessed as substrate phosphorylation using fluorescence-labelled peptides as substrate at 95 uM after 90 mins by microfluidic peptide phosphorylation assay
T3 sequence (whole entry): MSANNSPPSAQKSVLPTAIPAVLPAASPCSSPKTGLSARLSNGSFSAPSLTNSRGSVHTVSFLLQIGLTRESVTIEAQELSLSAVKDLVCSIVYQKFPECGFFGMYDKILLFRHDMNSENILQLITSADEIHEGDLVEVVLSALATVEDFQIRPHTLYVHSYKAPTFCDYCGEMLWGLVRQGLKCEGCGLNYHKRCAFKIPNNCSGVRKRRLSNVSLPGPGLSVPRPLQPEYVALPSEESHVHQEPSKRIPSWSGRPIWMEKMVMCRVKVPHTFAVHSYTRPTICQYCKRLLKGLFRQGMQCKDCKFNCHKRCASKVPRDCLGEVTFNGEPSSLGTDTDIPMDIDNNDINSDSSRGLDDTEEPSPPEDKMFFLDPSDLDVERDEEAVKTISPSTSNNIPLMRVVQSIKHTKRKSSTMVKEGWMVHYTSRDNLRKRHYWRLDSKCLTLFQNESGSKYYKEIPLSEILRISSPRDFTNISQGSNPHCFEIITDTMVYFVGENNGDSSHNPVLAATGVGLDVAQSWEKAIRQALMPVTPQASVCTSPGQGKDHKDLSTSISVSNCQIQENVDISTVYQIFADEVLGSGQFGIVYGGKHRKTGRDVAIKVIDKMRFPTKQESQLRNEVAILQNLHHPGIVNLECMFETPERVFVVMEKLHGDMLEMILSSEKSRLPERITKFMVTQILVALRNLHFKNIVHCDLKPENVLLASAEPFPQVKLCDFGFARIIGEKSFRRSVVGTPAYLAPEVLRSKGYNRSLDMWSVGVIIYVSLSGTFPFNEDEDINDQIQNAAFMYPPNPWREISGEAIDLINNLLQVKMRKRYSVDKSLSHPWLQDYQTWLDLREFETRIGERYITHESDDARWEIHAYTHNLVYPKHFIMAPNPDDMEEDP

[5] = biological target: Ribosomal protein S6 kinase alpha-4 (Homo sapiens) (UniProt O75676); assay: Inhibition of human full length MSK2 expressed in baculovirus assessed as substrate phosphorylation using fluorescence-labelled peptides as substrate at 1000 uM after 90 mins by microfluidic peptide phosphorylation assay
Sequence of Ribosomal protein S6 kinase alpha-4 (Homo sapiens) (O75676 whole entry, looked up): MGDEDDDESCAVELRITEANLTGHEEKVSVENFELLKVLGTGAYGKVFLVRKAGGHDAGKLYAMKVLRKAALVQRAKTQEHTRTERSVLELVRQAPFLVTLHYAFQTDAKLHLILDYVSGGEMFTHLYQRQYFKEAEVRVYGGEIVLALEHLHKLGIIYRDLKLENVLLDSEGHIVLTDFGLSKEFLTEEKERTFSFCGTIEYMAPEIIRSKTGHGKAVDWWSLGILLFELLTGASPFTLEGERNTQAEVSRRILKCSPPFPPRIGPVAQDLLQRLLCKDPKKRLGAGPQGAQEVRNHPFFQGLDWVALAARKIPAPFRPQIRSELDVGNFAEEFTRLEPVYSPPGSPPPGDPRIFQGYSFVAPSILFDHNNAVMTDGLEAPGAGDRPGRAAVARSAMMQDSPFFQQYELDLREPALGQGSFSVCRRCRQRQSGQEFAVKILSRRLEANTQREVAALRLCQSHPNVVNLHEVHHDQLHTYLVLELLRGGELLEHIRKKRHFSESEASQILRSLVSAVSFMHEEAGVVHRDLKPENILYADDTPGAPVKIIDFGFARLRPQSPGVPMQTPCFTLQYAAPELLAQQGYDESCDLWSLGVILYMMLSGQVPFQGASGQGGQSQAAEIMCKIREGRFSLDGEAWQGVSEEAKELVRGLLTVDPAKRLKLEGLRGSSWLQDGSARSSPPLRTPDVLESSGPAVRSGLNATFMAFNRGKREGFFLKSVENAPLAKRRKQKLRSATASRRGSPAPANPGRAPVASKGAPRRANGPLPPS

[6] = biological target: T4, Serine/threonine-protein kinase D2 (Homo sapiens) (UniProt Q9BZL6); assay: Inhibition of human full length PKD2 expressed in baculovirus assessed as substrate phosphorylation using fluorescence-labelled peptides as substrate at 70 uM after 90 mins by microfluidic peptide phosphorylation assay
T4 sequence (whole entry): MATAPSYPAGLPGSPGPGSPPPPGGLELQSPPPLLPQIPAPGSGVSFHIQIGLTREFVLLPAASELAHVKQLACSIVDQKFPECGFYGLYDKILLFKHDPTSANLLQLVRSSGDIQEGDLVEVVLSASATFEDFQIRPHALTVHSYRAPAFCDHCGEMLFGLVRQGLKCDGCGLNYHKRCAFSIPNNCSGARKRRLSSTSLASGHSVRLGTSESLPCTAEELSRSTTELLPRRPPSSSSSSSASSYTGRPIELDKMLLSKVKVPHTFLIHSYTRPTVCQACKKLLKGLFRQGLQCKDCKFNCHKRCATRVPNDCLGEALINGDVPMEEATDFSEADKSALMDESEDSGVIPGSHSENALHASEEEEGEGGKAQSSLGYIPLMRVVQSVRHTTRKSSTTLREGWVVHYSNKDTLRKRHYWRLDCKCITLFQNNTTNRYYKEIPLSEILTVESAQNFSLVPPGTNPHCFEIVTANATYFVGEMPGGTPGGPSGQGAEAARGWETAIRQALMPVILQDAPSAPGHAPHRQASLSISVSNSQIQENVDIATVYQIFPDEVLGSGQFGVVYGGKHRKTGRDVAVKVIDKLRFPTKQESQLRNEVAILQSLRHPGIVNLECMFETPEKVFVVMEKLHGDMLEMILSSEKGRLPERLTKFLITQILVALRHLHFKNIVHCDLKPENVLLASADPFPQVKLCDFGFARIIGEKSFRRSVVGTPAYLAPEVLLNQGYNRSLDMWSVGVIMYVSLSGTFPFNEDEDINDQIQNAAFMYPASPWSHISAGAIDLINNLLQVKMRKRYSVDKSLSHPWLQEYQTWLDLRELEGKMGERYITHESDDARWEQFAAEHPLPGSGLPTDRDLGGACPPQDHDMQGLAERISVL

Structure (SMILES): NCC1CCN(c2ncnc3[nH]ccc23)CC1
- inhibition [1]: 34%

Structure (SMILES): Clc1ccc(C2(c3ccc(-c4ncnc5[nH]cnc45)cc3)CCNCC2)cc1
- inhibition [2]: 16%

Structure (SMILES): C[C@H](CN(C)C)Oc1nc(Nc2cc3cccc(Cl)c3cn2)cnc1C#N
- inhibition [3]: 3.5%

Structure (SMILES): NCCc1ccc(-c2ncnc3[nH]cnc23)cc1
- inhibition [4]: 61.5%

Structure (SMILES): c1cnc2[nH]ccc2c1
- inhibition [5]: 81%

Structure (SMILES): CNCc1ccc(-c2ncnc3[nH]cnc23)cc1
- inhibition [6]: 77.5%
